Assay results from paper PMC5218480 (PLoS ONE, 2017).

Tested on: MV-4-11 cells
Assay: Gene expression microarray analysis (Affymetrix PrimeView) and GSEA
Format: cell-based, human
Design: RFU PODN (11730768_x_at) / Fold change /veh PODN (11730768_x_at) / RFU LINC00158 (11744669_a_at) / Fold change /veh LINC00158 (11744669_a_at) / RFU DUSP10 (11751237_a_at) / Fold change /veh DUSP10 (11751237_a_at) / RFU ID3 (11757404_x_at) / Fold change /veh ID3 (11757404_x_at) / RFU PLEKHG5 (11737974_s_at) / Fold change /veh PLEKHG5 (11737974_s_at) / RFU LRRC4B (11730491_at) / Fold change /veh LRRC4B (11730491_at) / RFU GIMAP4 (11747438_a_at) / Fold change /veh GIMAP4 (11747438_a_at) / RFU KRT8 (11758183_x_at) / Fold change /veh KRT8 (11758183_x_at) / RFU CNN1 (11734310_a_at) / Fold change /veh CNN1 (11734310_a_at) / RFU VPS37D (11726825_at) / Fold change /veh VPS37D (11726825_at) / RFU C10orf10 (11716522_x_at) / Fold change /veh C10orf10 (11716522_x_at) / RFU KIR2DL2 /// KIR2DL4 /// KIR2DL5A /// KIR2DL5B /// KIR2DS1 /// KIR2DS2 /// KIR2DS3 /// KIR2DS4 /// KIR3DL3 /// KIR3DL3 /// KIR3DS1 (11738374_at) / Fold change /veh KIR2DL2 /// KIR2DL4 /// KIR2DL5A /// KIR2DL5B /// KIR2DS1 /// KIR2DS2 /// KIR2DS3 /// KIR2DS4 /// KIR3DL3 /// KIR3DL3 /// KIR3DS1 (11738374_at) / RFU C1QL1 (11718748_at) / Fold change /veh C1QL1 (11718748_at) / RFU TMPRSS4 (11747572_a_at) / Fold change /veh TMPRSS4 (11747572_a_at) / RFU HAMP (11756126_x_at) / Fold change /veh HAMP (11756126_x_at) / RFU RNFT2 (11725882_a_at) / Fold change /veh RNFT2 (11725882_a_at) / RFU NR4A2 (11747474_a_at) / Fold change /veh NR4A2 (11747474_a_at) / RFU ABCC12 (11746883_a_at) / Fold change /veh ABCC12 (11746883_a_at) / RFU TMEM136 (11760407_x_at) / Fold change /veh TMEM136 (11760407_x_at) / RFU CLDN22 /// WWC2 (11732394_at) / Fold change /veh CLDN22 /// WWC2 (11732394_at) / RFU HLA-DPB1 (11760878_x_at) / Fold change /veh HLA-DPB1 (11760878_x_at) / RFU SPINT1 (11716480_a_at) / Fold change /veh SPINT1 (11716480_a_at) / RFU GAP43 (11754022_s_at) / Fold change /veh GAP43 (11754022_s_at) / RFU A4GNT (11735810_at) / Fold change /veh A4GNT (11735810_at) / RFU PRB3 (11715151_x_at) / Fold change /veh PRB3 (11715151_x_at) / RFU TUBB4B (11761932_at) / Fold change /veh TUBB4B (11761932_at) / RFU CAPN14 (11732068_a_at) / Fold change /veh CAPN14 (11732068_a_at) / RFU TMCC2 (11721928_a_at) / Fold change /veh TMCC2 (11721928_a_at) / RFU IRGQ (11745062_a_at) / Fold change /veh IRGQ (11745062_a_at) / RFU FAM174B (11720279_a_at) / Fold change /veh FAM174B (11720279_a_at) / RFU TMPRSS4 (11748680_a_at) / Fold change /veh TMPRSS4 (11748680_a_at) / RFU FAM212B (11763350_a_at) / Fold change /veh FAM212B (11763350_a_at) / RFU PLEKHG5 (11743358_a_at) / Fold change /veh PLEKHG5 (11743358_a_at) / RFU ZSCAN30 (11745921_a_at) / Fold change /veh ZSCAN30 (11745921_a_at) / RFU CMKLR1 (11741424_a_at) / Fold change /veh CMKLR1 (11741424_a_at) / RFU LOC101060620 /// MAPK8IP1 (11723275_at) / Fold change /veh LOC101060620 /// MAPK8IP1 (11723275_at) / RFU SPTSSB (11747773_x_at) / Fold change /veh SPTSSB (11747773_x_at) / RFU PRSS12 (11739890_at) / Fold change /veh PRSS12 (11739890_at) / RFU BIN1 (11741810_x_at) / Fold change /veh BIN1 (11741810_x_at) / RFU WNT11 (11732464_a_at) / Fold change /veh WNT11 (11732464_a_at) / RFU C10orf10 (11716521_a_at) / Fold change /veh C10orf10 (11716521_a_at) / RFU C5orf56 (11738089_at) / Fold change /veh C5orf56 (11738089_at) / RFU CYB561 (11721691_x_at) / Fold change /veh CYB561 (11721691_x_at) / RFU ANKRD19P (11752326_a_at) / Fold change /veh ANKRD19P (11752326_a_at) / RFU OR2T12 /// OR2T33 /// OR2T8 (11738714_s_at) / Fold change /veh OR2T12 /// OR2T33 /// OR2T8 (11738714_s_at) / RFU VCAN (11748164_a_at) / Fold change /veh VCAN (11748164_a_at) / RFU JSRP1 (11732532_at) / Fold change /veh JSRP1 (11732532_at) / RFU KRTAP10-11 (11738290_x_at) / Fold change /veh KRTAP10-11 (11738290_x_at) / RFU MYO3A (11730013_a_at) / Fold change /veh MYO3A (11730013_a_at) / RFU EBF3 (11725865_a_at) / Fold change /veh EBF3 (11725865_a_at) / RFU CAMK2N1 (11719241_x_at) / Fold change /veh CAMK2N1 (11719241_x_at) / RFU C5orf56 (11738088_a_at) / Fold change /veh C5orf56 (11738088_a_at) / RFU OLFML3 (11715873_a_at) / Fold change /veh OLFML3 (11715873_a_at) / RFU LOC100653217 /// NTM (11731650_a_at) / Fold change /veh LOC100653217 /// NTM (11731650_a_at) / RFU MAPK11 (11762145_a_at) / Fold change /veh MAPK11 (11762145_a_at) / RFU FIZ1 (11724087_x_at) / Fold change /veh FIZ1 (11724087_x_at) / RFU OASL (11726364_x_at) / Fold change /veh OASL (11726364_x_at) / RFU SOX15 (11748057_x_at) / Fold change /veh SOX15 (11748057_x_at) / RFU CD79A (11719716_a_at) / Fold change /veh CD79A (11719716_a_at) / RFU HIST1H1D (11736915_at) / Fold change /veh HIST1H1D (11736915_at) / RFU CASKIN2 (11723855_a_at) / Fold change /veh CASKIN2 (11723855_a_at) / RFU LOC730098 (11760151_x_at) / Fold change /veh LOC730098 (11760151_x_at) / RFU OR4N2 (11742367_at) / Fold change /veh OR4N2 (11742367_at) / RFU PRRT2 (11749266_a_at) / Fold change /veh PRRT2 (11749266_a_at) / RFU SNX32 (11753110_a_at) / Fold change /veh SNX32 (11753110_a_at) / RFU CDHR5 (11726645_a_at) / Fold change /veh CDHR5 (11726645_a_at) / RFU RCAN1 (11760418_a_at) / Fold change /veh RCAN1 (11760418_a_at) / RFU FAM167A (11723789_a_at) / Fold change /veh FAM167A (11723789_a_at) / RFU FAM26E (11764081_at) / Fold change /veh FAM26E (11764081_at) / RFU ISYNA1 (11749810_s_at) / Fold change /veh ISYNA1 (11749810_s_at) / RFU ACY1 (11761880_at) / Fold change /veh ACY1 (11761880_at) / RFU 11764098_at / Fold change /veh 11764098_at / RFU SAMD14 (11745864_x_at) / Fold change /veh SAMD14 (11745864_x_at) / RFU NPB (11741838_a_at) / Fold change /veh NPB (11741838_a_at) / RFU TMPRSS6 (11731388_a_at) / Fold change /veh TMPRSS6 (11731388_a_at) / RFU KRTAP10-2 (11738614_at) / Fold change /veh KRTAP10-2 (11738614_at) / RFU ARHGAP8 /// PRR5-ARHGAP8 (11727945_x_at) / Fold change /veh ARHGAP8 /// PRR5-ARHGAP8 (11727945_x_at) / RFU KRTAP5-7 /// NADSYN1 (11734609_at) / Fold change /veh KRTAP5-7 /// NADSYN1 (11734609_at) / RFU RASL12 (11751679_a_at) / Fold change /veh RASL12 (11751679_a_at) / RFU CDKN2B (11736163_a_at) / Fold change /veh CDKN2B (11736163_a_at) / RFU PRF1 (11729649_at) / Fold change /veh PRF1 (11729649_at) / RFU, ZNF638 /// ZNF638-IT1 / Fold change vs veh, ZNF638 /// ZNF638-IT1 / RFU, PANK3 / Fold change vs veh, PANK3 / RFU, SH3YL1 / Fold change vs veh, SH3YL1 / RFU, ZEB2 / Fold change vs veh, ZEB2 / RFU, NRIP1 / Fold change vs veh, NRIP1 / RFU, PTTG1IP / Fold change vs veh, PTTG1IP / RFU, CAPN2 / Fold change vs veh, CAPN2 / RFU, MED14 / Fold change vs veh, MED14 / RFU, SNORA58 / Fold change vs veh, SNORA58 / RFU, C1orf63 / Fold change vs veh, C1orf63 / RFU, LRRFIP1 / Fold change vs veh, LRRFIP1 / RFU, NDUFAF7 / Fold change vs veh, NDUFAF7 / RFU, SLC12A2 / Fold change vs veh, SLC12A2 / RFU, IBTK / Fold change vs veh, IBTK / RFU, ESF1 / Fold change vs veh, ESF1 / Fold change vs veh, TMEM50B / RFU, TAOK1 / Fold change vs veh, TAOK1 / RFU, ACBD3 / Fold change vs veh, ACBD3 / RFU, TMA16 / Fold change vs veh, TMA16 / RFU, RWDD3 / Fold change vs veh, RWDD3 / RFU, BCAT1 / Fold change vs veh, BCAT1 / RFU, EDEM3 / Fold change vs veh, EDEM3 / RFU, TMEM33 / Fold change vs veh, TMEM33 / RFU, WDR75 / Fold change vs veh, WDR75 / RFU, AHCTF1 / Fold change vs veh, AHCTF1 / RFU, TFRC / Fold change vs veh, TFRC / RFU, ZDHHC17 / Fold change vs veh, ZDHHC17 / RFU, NOM1 / Fold change vs veh, NOM1 / RFU, ARL8B / Fold change vs veh, ARL8B / RFU, ZBTB11 / Fold change vs veh, ZBTB11 / RFU, TAMM41 / Fold change vs veh, TAMM41 / RFU, KIAA1704 /// LOC100996395 / Fold change vs veh, KIAA1704 /// LOC100996395 / RFU, ING1 / Fold change vs veh, ING1 / RFU, TRMT61B / Fold change vs veh, TRMT61B / RFU, FUBP3 / Fold change vs veh, FUBP3 / RFU, TP53 / Fold change vs veh, TP53 / RFU, TNKS2 / Fold change vs veh, TNKS2 / RFU, ZFP14 / Fold change vs veh, ZFP14 / RFU, ACTR2 / Fold change vs veh, ACTR2 / RFU, PPP3R1 / Fold change vs veh, PPP3R1 / RFU, PIK3R1 / Fold change vs veh, PIK3R1 / RFU, HNRNPA1 / Fold change vs veh, HNRNPA1 / RFU, RNF170 / Fold change vs veh, RNF170 / RFU, ZNF28 / Fold change vs veh, ZNF28 / RFU, RNGTT / Fold change vs veh, RNGTT / RFU, OGT / Fold change vs veh, OGT / RFU, BRD1 / Fold change vs veh, BRD1 / RFU, MARS / Fold change vs veh, MARS / RFU, ZNF655 / Fold change vs veh, ZNF655 / RFU, FAHD1 / Fold change vs veh, FAHD1 / RFU, BDP1 / Fold change vs veh, BDP1 / RFU, LRRCC1 / Fold change vs veh, LRRCC1 / RFU, ARID1A / Fold change vs veh, ARID1A / RFU, ZNF146 / Fold change vs veh, ZNF146 / RFU, ZNF330 / Fold change vs veh, ZNF330 / RFU, GPN3 / Fold change vs veh, GPN3 / RFU, C9orf123 / Fold change vs veh, C9orf123 / RFU, N4BP2L2 / Fold change vs veh, N4BP2L2 / RFU, ARFIP1 / Fold change vs veh, ARFIP1 / RFU, FAM179B / Fold change vs veh, FAM179B / RFU, BCL10 / Fold change vs veh, BCL10 / RFU, UHRF1BP1L / Fold change vs veh, UHRF1BP1L / RFU, BET1 / Fold change vs veh, BET1 / RFU, CNOT2 / Fold change vs veh, CNOT2 / RFU, ZNF268 / Fold change vs veh, ZNF268 / Fold change vs veh, ZNF507 / RFU, DGCR2 / Fold change vs veh, DGCR2 / RFU, WDSUB1 / Fold change vs veh, WDSUB1 / Fold change vs veh, HSP90B1 /// MIR3652 / RFU, ADSS / Fold change vs veh, ADSS / RFU, GK / Fold change vs veh, GK / RFU, ZNF148 / Fold change vs veh, ZNF148 / RFU, TAF9 / Fold change vs veh, TAF9 / RFU, SLC1A5 / Fold change vs veh, SLC1A5 / RFU, SLMO2 / Fold change vs veh, SLMO2 / RFU, ABCC4 / Fold change vs veh, ABCC4 / RFU, LOC101060439 /// RAP1B / Fold change vs veh, LOC101060439 /// RAP1B / RFU, RFX7 / Fold change vs veh, RFX7 / RFU, GTPBP10 / Fold change vs veh, GTPBP10 / RFU, CNEP1R1 / Fold change vs veh, CNEP1R1 / RFU, BIVM-ERCC5 /// ERCC5 / Fold change vs veh, BIVM-ERCC5 /// ERCC5 / RFU, ILF3 / Fold change vs veh, ILF3 / RFU 11762660_at / Fold change /veh 11762660_at / RFU VCAN (11757783_s_at) / Fold change /veh VCAN (11757783_s_at) / RFU DDX43 (11728927_at) / Fold change /veh DDX43 (11728927_at) / RFU KRT8 (11758188_x_at) / Fold change /veh KRT8 (11758188_x_at) / RFU NKD1 (11759106_at) / Fold change /veh NKD1 (11759106_at) / RFU SRD5A1 (11742802_a_at) / Fold change /veh SRD5A1 (11742802_a_at) / RFU TPSAB1 /// TPSB2 (11721975_s_at) / Fold change /veh TPSAB1 /// TPSB2 (11721975_s_at) / RFU GSTM3 (11746129_a_at) / Fold change /veh GSTM3 (11746129_a_at) / RFU IL23R (11737362_x_at) / Fold change /veh IL23R (11737362_x_at) / RFU TMEM51 (11727254_a_at) / Fold change /veh TMEM51 (11727254_a_at) / RFU PIWIL2 (11732686_x_at) / Fold change /veh PIWIL2 (11732686_x_at) / RFU ORM1 (11744905_x_at) / Fold change /veh ORM1 (11744905_x_at) / RFU CCDC152 (11743942_at) / Fold change /veh CCDC152 (11743942_at) / RFU ECM1 (11717891_a_at) / Fold change /veh ECM1 (11717891_a_at) / RFU IL23R (11748794_a_at) / Fold change /veh IL23R (11748794_a_at) / RFU TNFAIP8L3 (11732012_x_at) / Fold change /veh TNFAIP8L3 (11732012_x_at) / RFU MBOAT4 (11741988_at) / Fold change /veh MBOAT4 (11741988_at) / RFU 11764193_at / Fold change /veh 11764193_at / RFU TMEM53 (11763286_at) / Fold change /veh TMEM53 (11763286_at) / RFU MAGEB2 (11727129_at) / Fold change /veh MAGEB2 (11727129_at) / RFU TMEM200A (11744735_a_at) / Fold change /veh TMEM200A (11744735_a_at) / RFU CCDC152 (11751479_a_at) / Fold change /veh CCDC152 (11751479_a_at) / RFU FAM211A (11726209_a_at) / Fold change /veh FAM211A (11726209_a_at) / RFU RGS16 (11746705_a_at) / Fold change /veh RGS16 (11746705_a_at) / RFU VCAN (11755009_s_at) / Fold change /veh VCAN (11755009_s_at) / RFU RHOB (11743442_s_at) / Fold change /veh RHOB (11743442_s_at) / RFU RGS16 (11720943_a_at) / Fold change /veh RGS16 (11720943_a_at) / RFU RGS16 (11720944_at) / Fold change /veh RGS16 (11720944_at) / RFU, VPS4B / Fold change vs veh, VPS4B / RFU, CREB1 / Fold change vs veh, CREB1 / RFU, DNAJC13 / Fold change vs veh, DNAJC13 / RFU, GNAQ / Fold change vs veh, GNAQ / RFU, CDK5R1 / Fold change vs veh, CDK5R1 / RFU, ZRANB3 / Fold change vs veh, ZRANB3 / RFU, CUL4A / Fold change vs veh, CUL4A / RFU, CCNY / Fold change vs veh, CCNY / RFU, UFL1 / Fold change vs veh, UFL1 / RFU, COG3 / Fold change vs veh, COG3 / RFU, DIAPH2 / Fold change vs veh, DIAPH2 / RFU, SKA2 / Fold change vs veh, SKA2 / RFU, AFF3 / Fold change vs veh, AFF3 / RFU, LMF1 / Fold change vs veh, LMF1 / RFU, IPO11 / Fold change vs veh, IPO11 / RFU, DFFB / Fold change vs veh, DFFB / RFU, FOXP1 / Fold change vs veh, FOXP1 / RFU, CARD8 / Fold change vs veh, CARD8 / RFU, STRN3 / Fold change vs veh, STRN3 / RFU, ADK / Fold change vs veh, ADK / RFU, RASSF2 / Fold change vs veh, RASSF2 / RFU, WIPF1 / Fold change vs veh, WIPF1 / RFU, LARP1B / Fold change vs veh, LARP1B / RFU, RASA1 / Fold change vs veh, RASA1 / RFU, RB1 / Fold change vs veh, RB1 / RFU, PPFIA1 / Fold change vs veh, PPFIA1 / RFU, MAT2A / Fold change vs veh, MAT2A / RFU, CCT5 / Fold change vs veh, CCT5 / RFU, WDR92 / Fold change vs veh, WDR92 / RFU, CUX1 / Fold change vs veh, CUX1 / RFU, TTC7A / Fold change vs veh, TTC7A / RFU, TMEM135 / Fold change vs veh, TMEM135 / RFU, DEPTOR / Fold change vs veh, DEPTOR / RFU, CPM / Fold change vs veh, CPM / RFU, DNAJB6 / Fold change vs veh, DNAJB6 / RFU, CACNA2D3 / Fold change vs veh, CACNA2D3 / RFU, DTX4 / Fold change vs veh, DTX4 / RFU, TFCP2 / Fold change vs veh, TFCP2 / RFU, GMCL1 /// GMCL1P1 / Fold change vs veh, GMCL1 /// GMCL1P1 / RFU, AEBP2 / Fold change vs veh, AEBP2 / RFU, SNHG1 /// SNORD22 /// SNORD25 /// SNORD26 /// SNORD27 /// SNORD28 /// SNORD29 /// SNORD31 / Fold change vs veh, SNHG1 /// SNORD22 /// SNORD25 /// SNORD26 /// SNORD27 /// SNORD28 /// SNORD29 /// SNORD31 / Fold change (Aza/veh), C12orf56 (ProbeSet 11735607_a_at) / Fold change (ACY-1035/veh), C12orf56 (ProbeSet 11735607_a_at) / Fold change (Aza/veh), FGFR1OP (ProbeSet 11751329_s_at) / Fold change (ACY-1035/veh), FGFR1OP (ProbeSet 11751329_s_at) / Fold change (Aza/veh), VPS36 (ProbeSet 11739960_a_at) / Fold change (ACY-1035/veh), VPS36 (ProbeSet 11739960_a_at) / RFU SYPL1 (11715823_x_at) / Fold change /veh SYPL1 (11715823_x_at) / RFU IGFBP7 (11715501_s_at) / Fold change /veh IGFBP7 (11715501_s_at) / RFU REEP3 (11722064_at) / Fold change /veh REEP3 (11722064_at) / RFU IGLL1 (11728026_x_at) / Fold change /veh IGLL1 (11728026_x_at): dose or concentration left out as unconfirmed
Details: MV-4-11 cells, 48 hours

Nc1ccc(-c2cccs2)cc1NC(=O)c1ccc2c(c1)cc(C1CC1)n2CCN1CCOCC1 [ACY-1035]
Fold change /veh IGLL1 (11728026_x_at): 0.28
